Source: paper PMC10698177, “Discovery of type II polyketide synthase-like enzymes for the biosynthesis of cispentacin” (Nature Communications, 2023)

Assays:
Assay type in all cases: biochemical
[1] = molecular target: T1, AmcH (Streptomyces novoguineensis, UniProt A0A4Y5QVH7); test: HPLC of ATP consumption and AMP formation; settings: 500 uM AmcB, 1 uM AmcH, 1 mM 2-OG, 2 mM ATP, 25 mM MgCl2, pH 8.0, 30 °C
T1 construct: AmcH purified from Streptomyces albus G153; AmcB (holo form, with phosphopantetheine arm) from E. coli BL21(DE3), pET26b(+), is the acyl acceptor; with Acyl carrier protein AmcB
T1 sequence (A0A4Y5QVH7 1-460): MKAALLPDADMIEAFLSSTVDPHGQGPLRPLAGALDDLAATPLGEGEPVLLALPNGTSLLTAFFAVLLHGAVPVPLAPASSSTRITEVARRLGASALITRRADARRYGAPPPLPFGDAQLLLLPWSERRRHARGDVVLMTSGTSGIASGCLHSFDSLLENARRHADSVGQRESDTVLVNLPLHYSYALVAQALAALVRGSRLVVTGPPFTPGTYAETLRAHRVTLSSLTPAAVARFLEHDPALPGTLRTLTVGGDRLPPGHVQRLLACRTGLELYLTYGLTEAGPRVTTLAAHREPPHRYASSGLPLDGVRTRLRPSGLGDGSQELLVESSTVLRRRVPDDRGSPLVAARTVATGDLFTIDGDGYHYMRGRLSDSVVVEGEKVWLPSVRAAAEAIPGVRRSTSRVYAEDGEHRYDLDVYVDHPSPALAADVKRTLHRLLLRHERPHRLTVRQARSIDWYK

[2] = molecular target: T2, eFabI (Escherichia coli, UniProt P0AEK4); test: PPant ejection assay / LC-HRMS of 4-AmcB formation; settings: 1 mM NADH, 200 uM gel-filtered 3-AmcB, 8 uM enzyme, 20 mM Tris-HCl pH 8.0, 150 mM NaCl, 30 °C, 1 h
T2 construct: gene fabI; C-terminal His tag, pET26b(+), E. coli BL21(DE3)
T2 sequence (P0AEK4 2-262): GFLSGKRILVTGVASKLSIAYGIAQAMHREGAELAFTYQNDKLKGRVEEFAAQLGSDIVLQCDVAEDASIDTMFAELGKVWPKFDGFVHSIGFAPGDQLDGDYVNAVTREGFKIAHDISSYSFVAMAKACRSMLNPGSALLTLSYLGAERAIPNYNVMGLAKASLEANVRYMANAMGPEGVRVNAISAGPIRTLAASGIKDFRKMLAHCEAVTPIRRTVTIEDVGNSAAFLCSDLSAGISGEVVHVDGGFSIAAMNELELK

[3] = molecular target: T3, sFabI (Streptomyces albidoflavus, UniProt D6BBL6); test: PPant ejection assay / LC-HRMS of 4-AmcB formation; settings: 1 mM NADH, 200 uM gel-filtered 3-AmcB, 8 uM enzyme, 20 mM Tris-HCl pH 8.0, 150 mM NaCl, 30 °C, 1 h
T3 construct: gene fabI; C-terminal His tag, pET26b(+), E. coli BL21(DE3)
T3 sequence (D6BBL6 1-259): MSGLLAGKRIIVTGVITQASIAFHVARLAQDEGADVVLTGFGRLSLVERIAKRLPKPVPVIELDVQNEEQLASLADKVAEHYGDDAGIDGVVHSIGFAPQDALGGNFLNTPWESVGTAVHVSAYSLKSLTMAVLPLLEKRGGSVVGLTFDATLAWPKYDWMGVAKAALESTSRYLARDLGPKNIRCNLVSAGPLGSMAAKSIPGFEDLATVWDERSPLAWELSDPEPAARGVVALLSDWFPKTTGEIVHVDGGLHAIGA

[4] = molecular target: T1, AmcH; test: LC-ESI-HRMS of acyl-AmcB; settings: 200 uM AmcB, 0.2 uM AmcH, 1 mM 2-OG, 5 mM ATP, 25 mM MgCl2, 50 mM Tris-HCl pH 8.0, 30 °C, 1 h

SMILES: Nc1ncnc2c1ncn2[C@@H]1O[C@H](COP(=O)(O)OP(=O)(O)OP(=O)(O)O)[C@@H](O)[C@H]1O [ATP]
- HPLC of ATP consumption and AMP formation [1]: consumption of ATP and the generation of AMP occurred in both AmcB- and 2-OG-dependent manners

SMILES: NC(=O)C1=CN([C@@H]2O[C@H](COP(=O)(O)OP(=O)(O)OC[C@H]3O[C@@H](n4cnc5c(N)ncnc54)[C@H](O)[C@@H]3O)[C@@H](O)[C@H]2O)C=CC1 [NADH]
- PPant ejection assay / LC-HRMS of 4-AmcB formation [2]: eFabI and sFabI specifically catalyze the reduction of 3-AmcB to yield 4-AmcB
- PPant ejection assay / LC-HRMS of 4-AmcB formation [3]: eFabI and sFabI specifically catalyze the reduction of 3-AmcB to yield 4-AmcB

SMILES: O=C(O)CCC(=O)C(=O)O [2-OG]
- LC-ESI-HRMS of acyl-AmcB [4]: AmcH loads only 2-OG onto AmcB to form 2-oxoglutaryl-AmcB
